Measured values published in publication doi:10.1101/2024.07.10.602890, “H105A peptide eye drops promote photoreceptor survival in murine and human models of retinal degeneration” (bioRxiv, 2024).
Ends that are not written are not given here.

Experiments:
[1] = Stability of peptide H105A against temperature (Table S2); assay type: physicochemical
Procedure: Lyophilized peptides were dissolved in sterile HBSS at 1 mg/ml and stored at −20 °C. Before the peptides were used, the peptide solution was brought to room temperature and subjected to centrifugation (Eppendorf, Centrifuge 5430R) at 20,800 g for 10 min at 4°C to clear and separate particulate material. In case a precipitate was found, the pH of the solution was adjusted to neutral pH with either NaOH or HCl and all peptides were soluble. The concentration of peptide solutions was determined using spectrophotometry (NanoDrop, Thermo Fisher Scientific).
Table S2. Stability of 17-mer[H105A] peptide.
Concentration (mg/mL) Store Concentration (mg/mL)
*FT, Freeze and thaw cycles daily

[2] = biological target: T1, recombinant human PEDF-R[1–288] (Homo sapiens, UniProt Q96AD5); assay: Phospholipase A2 (PLA2) activity assay of PEDF-R with peptides; assay type: biochemical; details: purified recombinant PEDF-R[1–288] 60 nM; peptides preincubated 30 min at room temperature; EnzChek PLA2 kit; six replicate reactions
T1 construct: SUMOstar (N); His tag (implied by HisTrap purification; part of the pE-SUMOstar vector) (N); TwinStrep (C); made in house; host or cells: Escherichia coli Rosetta(DE3), co-transformed with pGro7 (groES-groEL)
T1 sequence (Q96AD5 1-288): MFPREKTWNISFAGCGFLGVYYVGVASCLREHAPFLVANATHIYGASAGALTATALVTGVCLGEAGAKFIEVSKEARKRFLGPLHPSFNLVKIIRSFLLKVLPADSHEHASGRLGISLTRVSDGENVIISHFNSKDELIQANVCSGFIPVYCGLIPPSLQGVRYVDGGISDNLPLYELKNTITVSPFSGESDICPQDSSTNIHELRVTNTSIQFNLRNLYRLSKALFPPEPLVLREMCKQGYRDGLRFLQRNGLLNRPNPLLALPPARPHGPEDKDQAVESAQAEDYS
Text: Fig. 1: Penetration and Bioavailability of PEDF Peptides 17-mer, H105A, and R99A Delivered via Eye Drops in Mouse Retinas (A) Peptide mapping and sequence. Tertiary structure of human PEDF highlighting the small peptide region with neurotrophic activity (17-mer) in blue (top). Primary structure of human PEDF showing the location of the 17-mer region (middle). Sequences of the 17-mer peptide and its variants, H105A and R99A (bottom). (B) In vivo detection of peptides. Fundus micrographs showing fluorescence from Alexa Fluor 488-labeled 17-mer, H105A, and R99A peptides in the eyes of C57Bl/6J mice at P21 days after eye drop administration of 5 μl of peptide at 1 mg/ml (left). […] Quantification of fluorescence intensity over time post-administration (right). […] (C) Quantification of peptide in retinas. […] The amount of peptide was quantified from the fluorescence in retinal extracts using standard curves (Fig. S6A). […] (D) Retinal cross-sections showing fluorescence distribution in the photoreceptor layer 1 hour after applying eye drops as in Panel B. Representative images for labeled 17-mer, H105A, and R99A peptides are shown, with magnified areas of 17-mer and H105A indicated by dotted rectangles. […] (F) Effects of 17-mer, H105A, and R99A peptides on the PLA2 activity of PEDF-R. Peptides were preincubated with recombinant human PEDF-R[1–288] for 30 min, and PLA2 activity was measured. […]

With QRTESIIARALYYDLIS [H105A] the “Concentration Day1” value ([1]; sample 1, before storage at RT, peptide solution, spectrophotometry (NanoDrop)) was 1040 µg/mL, the “Concentration Day1” value ([1]; sample 2, before storage at 4°C) was 1040 µg/mL and the “Concentration Day1” value ([1]; sample 3, before storage at -20°C) was 1040 µg/mL. The “Concentration Day1” value ([1]; sample 4, before storage at -20°C [FT]) was 1040 µg/mL and the “stimulation of PLA2 activity of PEDF-R” value [2] was “capable of stimulating its PLA2 activity”.
In the case of QRTESIIHRALYYDLIS [17-mer], the “stimulation of PLA2 activity of PEDF-R” value [2] is reported as “capable of stimulating its PLA2 activity”.
